The numbers were not newly measured in US10918602B2, “Compositions and methods for preparing polymeric films loaded with uniformly distributed drug particles” (New Jersey Institute of Technology, priority 2017, dated 2021), which cites them from elsewhere.

For the data set the following is noted: literature examples.

Each structure is given as a SMILES string.

`CN1C(=O)CN=C(c2ccccc2)c2cc(Cl)ccc21` [diazepam]: the Diffusional exponent n is given as 0.82. `COc1ccc2c(c1)c(CC(=O)O)c(C)n2C(=O)c1ccc(Cl)cc1` [indomethacin]: the Diffusional exponent n is 0.9.
